Experiments:
[1] = biological target: human Farnesoid X receptor ligand-binding domain/Gal4 DNA binding domain chimera (Homo sapiens (Human), UniProt Q96RI1); test: Cell-based assay of FXR activation (FXR-UAS-bla HEK 293T beta-lactamase reporter); details: cellular FXR beta-lactamase reporter assay; for Emax: HEK-293T, extent of activation relative to GW4064, read-out: % Efficacy; for EC50: FXR-UAS-bla HEK 293T cells, 16 h, pEC50 = -log EC50
Experimental: FXR activation was measured using a cell line and procedure obtained from Life Technologies (Cat # K1691). FXR-UAS-bla HEK 293T cells contain a human Farnesoid X receptor ligand-binding domain/Gal4 DNA binding domain chimera stably integrated into the CellSensor® UAS-bla HEK 293T cell line. The CellSensor® UAS-bla HEK 293T contains a beta-lactamase reporter gene under control of a UAS response element stably integrated into HEK 293T cells. Activation of FXR by bound ligands results in transcriptional activation of the beta-lactamase reporter gene, which is detected via assay of beta-lactamase activity.
Cells are harvested and diluted into assay medium containing phenol red-free DMEM supplemented with 2% Charcoal-stripped FBS, pyruvate, non-essential amino acids. Cells are then transferred to a 384 well assay plate. Test compounds are dissolved in DMSO and a 3-fold serial dilution series is generated, then further diluted into assay medium. Compounds in assay medium are added to cells in the 384 well plate and allowed to incubate 16 h at 37 C in the presence of 5% CO2.
A FRET-based […] is loaded into cells as its acetomethoxy ester. Intracellular esterases liberate free CCF4, a cephalosporin core linking 7-hydroxycoumarin to fluorescein. In the presence of beta-lactamase activity produced in the presence of FXR agonists, cleavage of CCF4 spatially separates the two dyes and disrupts FRET, so that exciting the coumarin at 409 nm now produces a blue fluorescence signal at 447 nm. The change in FRET signal is plotted against the test compound concentration and fit to a 3-parameter logistical equation. The concentration required to produce 50% activation is expressed as pEC50 (−log EC50), and the extent of activation is expressed relative to GW4064 as % activation.

[2] = biological target: ligand binding domain of human FXR (Homo sapiens (Human), UniProt Q96RI1); test: FXR ligand binding assay (LanthaScreen TR-FRET, SRC2-2 peptide recruitment); details: for pEC50 / EC50: -log EC50, concentration required to produce 50% activation; for Emax: extent of activation relative to GW4064, read-out: % Efficacy
Chain of ligand binding domain of human FXR (Q96RI1 262-486): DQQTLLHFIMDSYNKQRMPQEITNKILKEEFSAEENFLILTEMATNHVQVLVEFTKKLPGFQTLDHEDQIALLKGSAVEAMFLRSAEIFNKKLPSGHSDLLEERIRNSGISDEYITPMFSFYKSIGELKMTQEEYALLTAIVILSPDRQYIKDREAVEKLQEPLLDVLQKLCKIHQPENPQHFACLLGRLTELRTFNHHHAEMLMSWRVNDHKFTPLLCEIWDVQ

Chain of human Farnesoid X receptor ligand-binding domain/Gal4 DNA binding domain chimera (Q96RI1 262-486, stated change not applied): as the sequence (Q96RI1 262-486) above
Chain of human Farnesoid X receptor ligand-binding domain/Gal4 DNA binding domain chimera (P04386 1-147 partner): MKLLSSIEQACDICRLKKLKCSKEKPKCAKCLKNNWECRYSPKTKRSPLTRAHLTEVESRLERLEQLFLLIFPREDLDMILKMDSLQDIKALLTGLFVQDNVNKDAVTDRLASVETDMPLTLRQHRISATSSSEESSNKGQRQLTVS

Row | SMILES | Emax [1] [%] | EC50 [1] [µM] | pEC50 [2] | Emax [2] [%] | EC50 [2] [µM]
1 | O=C(O)c1cc(OC(F)(F)F)c2nc(N3C[C@@H]4C[C@H]3C[C@H]4OCc3c(-c4ccccc4C(F)(F)F)noc3C3CC3)sc2c1 [Compound I-20, 2-[(1S,4S,5R)-5-({5-cyclopropyl-3-[2-(trifluoromethyl)phenyl]-1,2-oxazol-4-yl}methoxy)-2-azabicyclo[2.2.1]heptan-2-yl]-4-(trifluoromethoxy)-1,3-benzothiazole-6-carboxylic Acid] | 113 | 0.000631 | 8.4 | 191 | 
2 | O=C(O)c1cc(F)c2nc(N3C[C@@H]4C[C@H]3C[C@H]4OCc3c(C4CCCCC4)noc3C3CC3)sc2c1 [Compound I-21, 2-[(1S,4S,5R)-5-[(3-cyclohexyl-5-cyclopropyl-1,2-oxazol-4-yl)methoxy]-2-azabicyclo[2.2.1]heptan-2-yl]-4-fluoro-1,3-benzothiazole-6-carboxylic Acid] | 110 | 0.0794 |  | 123 | 0.1
3 | O=C(O)c1cc(OC(F)(F)F)c2nc(N3C[C@@H]4C[C@H]3C[C@H]4OCc3c(C4CCCCC4)noc3C3CC3)sc2c1 [Compound I-22, 2-[(1S,4S,5R)-5-[(3-cyclohexyl-5-cyclopropyl-1,2-oxazol-4-yl)methoxy]-2-azabicyclo[2.2.1]heptan-2-yl]-4-(trifluoromethoxy)-1,3-benzothiazole-6-carboxylic Acid] | 113 | 0.126 |  | 85 | 0.316
4 | O=C(O)c1cc(OC(F)(F)F)c2nc(N3C[C@@H]4C[C@H]3C[C@H]4OCc3c(C4CCOCC4)noc3C3CC3)sc2c1 [Compound I-23, 2-[(1S,4S,5R)-5-{[5-cyclopropyl-3-(oxan-4-yl)-1,2-oxazol-4-yl]methoxy}-2-azabicyclo[2.2.1]heptan-2-yl]-4-(trifluoromethoxy)-1,3-benzothiazole-6-carboxylic Acid] | 100 | 0.631 | 5.5 | 85 | 
5 | O=C(O)c1cc(F)c2nc(N3C[C@@H]4C[C@H]3C[C@H]4OCc3c(-c4c(Cl)cccc4Cl)noc3C3(F)CC3)sc2c1 [Compound I-24, 2-[(1S,4S,5R)-5-{[3-(2,6-dichlorophenyl)-5-(1-fluorocyclopropyl)-1,2-oxazol-4-yl]methoxy}-2-azabicyclo[2.2.1]heptan-2-yl]-4-fluoro-1,3-benzothiazole-6-carboxylic Acid] | 102 | 0.000631 | 7.9 | 180 | 
6 | O=C(O)c1cc(OC(F)(F)F)c2nc(N3C[C@@H]4C[C@H]3C[C@H]4OCc3c(-c4c(Cl)cccc4Cl)noc3C3(F)CC3)sc2c1 [Compound I-25, 2-[(1S,4S,5R)-5-{[3-(2,6-dichlorophenyl)-5-(1-fluorocyclopropyl)-1,2-oxazol-4-yl]methoxy}-2-azabicyclo[2.2.1]heptan-2-yl]-4-(trifluoromethoxy)-1,3-benzothiazole-6-carboxylic Acid] | 102 | 0.000398 | 8.4 | 172 | 
7 | Fc1cc(-c2nn[nH]n2)cc2sc(N3C[C@@H]4C[C@H]3C[C@H]4OCc3c(-c4c(Cl)cccc4Cl)noc3C3CC3)nc12 [Compound I-26, 2-[(1S,4S,5R)-5-{[5-cyclopropyl-3-(2,6-dichlorophenyl)-1,2-oxazol-4-yl]methoxy}-2-azabicyclo[2.2.1]heptan-2-yl]-4-fluoro-6-(2H-1,2,3,4-tetrazol-5-yl)-1,3-benzothiazole] | 106 | 0.0251 | 8.4 | 137 | 
8 | FC(F)(F)Oc1cc(-c2nn[nH]n2)cc2sc(N3C[C@@H]4C[C@H]3C[C@H]4OCc3c(-c4c(Cl)cccc4Cl)noc3C3CC3)nc12 [Compound I-27, 2-[(1S,4S,5R)-5-{[5-cyclopropyl-3-(2,6-dichlorophenyl)-1,2-oxazol-4-yl]methoxy}-2-azabicyclo[2.2.1]heptan-2-yl]-4-trifluoromethoxy-6-(2H-1,2,3,4-tetrazol-5-yl)-1,3-benzothiazole] | 94 | 0.002 |  | 130 | 
9 | CS(=O)(=O)NC(=O)c1cc(F)c2nc(N3C[C@@H]4C[C@H]3C[C@H]4OCc3c(-c4c(Cl)cccc4Cl)noc3C3CC3)sc2c1 [Compound I-28, 2-[(1S,4S,5R)-5-{[5-cyclopropyl-3-(2,6-dichlorophenyl)-1,2-oxazol-4-yl]methoxy}-2-azabicyclo[2.2.1]heptan-2-yl]-4-fluoro-N-methanesulfonyl-1,3-benzothiazole-6-carboxamide] | 122 | 0.002 | 8.9 | 153 | 
10 | CCCS(=O)(=O)NC(=O)c1cc(F)c2nc(N3C[C@@H]4C[C@H]3C[C@H]4OCc3c(-c4c(Cl)cccc4Cl)noc3C3CC3)sc2c1 [Compound I-29, 2-[(1S,4S,5R)-5-{[5-cyclopropyl-3-(2,6-dichlorophenyl)-1,2-oxazol-4-yl]methoxy}-2-azabicyclo[2.2.1]heptan-2-yl]-4-fluoro-N-(propane-1-sulfonyl)-1,3-benzothiazole-6-carboxamide] | 118 | 0.00158 | 7.8 | 194 | 
11 | O=C(NS(=O)(=O)C1CC1)c1cc(F)c2nc(N3C[C@@H]4C[C@H]3C[C@H]4OCc3c(-c4c(Cl)cccc4Cl)noc3C3CC3)sc2c1 [Compound I-30, N-(cyclopropanesulfonyl)-2-[(1S,4S,5R)-5-{[5-cyclopropyl-3-(2,6-dichlorophenyl)-1,2-oxazol-4-yl]methoxy}-2-azabicyclo[2.2.1]heptan-2-yl]-4-fluoro-1,3-benzothiazole-6-carboxamide] | 114 | 0.00251 | 8.6 | 160 | 
12 | CS(=O)(=O)NC(=O)c1cc(F)c2nc(N3C[C@@H]4C[C@H]3C[C@H]4OC(=O)c3c(-c4c(Cl)cccc4Cl)noc3C3CC3)sc2c1 [Compound I-31, (1S,4S,5R)-2-[4-fluoro-6-(methanesulfonylcarbamoyl)-1,3-benzothiazol-2-yl]-2-azabicyclo[2.2.1]heptan-5-yl 5-cyclopropyl-3-(2,6-dichlorophenyl)-1,2-oxazole-4-carboxylate] | 115 | 0.158 | 7.4 | 117 | 
13 | CCCS(=O)(=O)NC(=O)c1cc(F)c2nc(N3C[C@@H]4C[C@H]3C[C@H]4OC(=O)c3c(-c4c(Cl)cccc4Cl)noc3C3CC3)sc2c1 [Compound I-32, (1S,4S,5R)-2-{4-fluoro-6-[(propane-1-sulfonyl)carbamoyl]-1,3-benzothiazol-2-yl}-2-azabicyclo[2.2.1]heptan-5-yl 5-cyclopropyl-3-(2,6-dichlorophenyl)-1,2-oxazole-4-carboxylate] | 110 | 0.126 | 7.6 | 148 | 
14 | O=C(NS(=O)(=O)C1CC1)c1cc(F)c2nc(N3C[C@@H]4C[C@H]3C[C@H]4OC(=O)c3c(-c4c(Cl)cccc4Cl)noc3C3CC3)sc2c1 [Compound I-33, (1S,4S,5R)-2-{6-[(cyclopropanesulfonyl)carbamoyl]-4-fluoro-1,3-benzothiazol-2-yl}-2-azabicyclo[2.2.1]heptan-5-yl 5-cyclopropyl-3-(2,6-dichlorophenyl)-1,2-oxazole-4-carboxylate] | 112 | 0.126 | 7.6 | 136 | 
15 | O=C(O)c1cc(F)c2nc(N3C[C@@H]4C[C@H]3C[C@@H]4OC(=O)c3c(-c4c(Cl)cccc4Cl)noc3C3CC3)sc2c1 [Compound I-34, 2-[(1S,4S,5S)-5-[5-cyclopropyl-3-(2,6-dichlorophenyl)-1,2-oxazole-4-carbonyloxy]-2-azabicyclo[2.2.1]heptan-2-yl]-4-fluoro-1,3-benzothiazole-6-carboxylic Acid] | 15 | 0.398 | >4.5 |  | 
16 | O=C(O)c1ccc2nc(N3C[C@@H]4C[C@H]3C[C@@H]4OC(=O)c3c(-c4c(Cl)cccc4Cl)noc3C3CC3)sc2c1 [Compound I-35, 2-[(1S,4S,5S)-5-[5-cyclopropyl-3-(2,6-dichlorophenyl)-1,2-oxazole-4-carbonyloxy]-2-azabicyclo[2.2.1]heptan-2-yl]-1,3-benzothiazole-6-carboxylic Acid] | 19 | 0.631 | >4.5 |  | 
17 | COC(=O)c1cc(F)c2nc(N3C[C@@H]4C[C@H]3C[C@@H]4OCc3c(-c4c(Cl)cccc4Cl)noc3C3CC3)sc2c1 [Compound I-36, Methyl 2-[(1S,4S,5S)-5-{[5-cyclopropyl-3-(2,6-dichlorophenyl)-1,2-oxazol-4-yl]methoxy}-2-azabicyclo[2.2.1]heptan-2-yl]-4-fluoro-1,3-benzothiazole-6-carboxylate] | 50 | 6.31 | 5.4 | 86 | 
